# Measurements published in patent publication US8765730B2 (Hoffmann-La Roche Inc, priority 2010, dated 2014).
# Like-named read-outs stand apart in the source and are kept apart here.
# Biological target: T1, human GPBAR1 receptor (Homo sapiens, UniProt Q8TDU6)
# T1 construct: expressed in transfected cells
# T1 sequence (Q8TDU6 1-330): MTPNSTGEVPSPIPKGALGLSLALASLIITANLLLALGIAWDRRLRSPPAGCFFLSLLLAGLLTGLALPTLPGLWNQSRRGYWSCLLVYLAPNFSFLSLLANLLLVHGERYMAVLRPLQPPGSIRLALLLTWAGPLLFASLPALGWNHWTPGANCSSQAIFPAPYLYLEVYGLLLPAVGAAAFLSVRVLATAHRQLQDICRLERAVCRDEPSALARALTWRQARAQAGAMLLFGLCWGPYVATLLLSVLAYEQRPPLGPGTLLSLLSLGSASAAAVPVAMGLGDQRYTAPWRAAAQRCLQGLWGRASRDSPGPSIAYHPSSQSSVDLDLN
# Assay: functional cAMP assay in CHO-dhfr(minus) cells expressing human GPBAR1 receptors
# Format: cell-based
# Conditions: 30 min at 30° C.
# Procedure, shortened: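 Agonist cAMP read-out: stable GPBAR1 CHO-dhfr− clone, 30 min compound exposure at 30° C following 30 min IBMX (1 mM) preincubation in Krebs Ringer bicarbonate. Time-resolved energy-transfer detection gives EC50; parental CHO cells serve as counter-screen.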
# [1] = human EC50, functional cAMP assay
compound,measurement,setting,value
"Cc1ccccc1[C@H](C/C(=N\O)c1ccnc(CO)c1)c1ccc(N2CCC(C(=O)O)CC2)cc1 [Example 374, (R,E)-1-(4-(3-(Hydroxyimino)-3-(2-(hydroxymethyl)pyridin-4-yl)-1-o-tolylpropyl)phenyl)-piperidine-4-carboxylic acid]",EC50,"functional cAMP assay, read-out: human EC50",31 nM
"Cc1cc(C(CC(c2ccc(-c3ccc(C(=O)NCCC(=O)O)cc3)cc2)c2ccccc2C)=NO)ccn1 (racemic) [Example 89, 3-({4′-[3-[Hydroxyimino]-3-(2-methyl-pyridin-4-yl)-1-o-tolyl-propyl]-biphenyl-4-carbonyl}-amino)-propionic acid]",EC50,[1],7 nM
"Cc1ccccc1C(C/C(=N\O)c1ccc(=O)n(C)c1)c1ccc(C(=O)NCCO)cc1 (stereo not drawn) [Example 208, N-(2-Hydroxy-ethyl)-4-[3-[(E)-hydroxyimino]-3-(1-methyl-6-oxo-1,6-dihydro-pyridin-3-yl)-1-o-tolyl-propyl]-benzamide]",EC50,[1],93 nM
"Cc1cc(/C(C[C@H](c2ccc(CC(=O)O)cc2)c2ccc(Cl)cc2C)=N/O)ccn1 [Example 382, {4-[(R)-1-(4-Chloro-2-methyl-phenyl)-3-[(E)-hydroxyimino]-3-(2-methyl-pyridin-4-yl)-propyl]-phenyl}-acetic acid]",EC50,[1],41 nM
"Cc1cc(/C(C[C@H](c2ccc(-c3cn(CC(=O)O)nn3)cc2)c2ccccc2C)=N/O)ccn1 (single isomer, unassigned) [Example 425, (4-{4-[(−)-3-[(E)-Hydroxyimino]-3-(2-methyl-pyridin-4-yl)-1-o-tolyl-propyl]-phenyl}-[1,2,3]triazol-1-yl)-acetic acid]",EC50,[1],14 nM
"Cc1cc(/C(CC(c2ccc(-c3ccc(C(=O)O)c(F)c3)cc2)c2ccc(Cl)cc2F)=N/O)ccn1 (stereo not drawn) [Example 447, 4′-[1-(4-Chloro-2-fluoro-phenyl)-3-[(E)-hydroxyimino]-3-(2-methyl-pyridin-4-yl)-propyl]-3-fluoro-biphenyl-4-carboxylic acid]",EC50,[1],12 nM
"Cc1cc(Cl)ccc1[C@@H](C/C(=N\O)c1ccc(=O)n(C)c1)c1ccc(-c2ccc(C(=O)O)cc2)cc1 (single isomer, unassigned) [Example 394, (−)-4′-[1-(4-Chloro-2-methyl-phenyl)-3-[(E)-hydroxyimino]-3-(1-methyl-6-oxo-1,6-dihydro-pyridin-3-yl)-propyl]-biphenyl-4-carboxylic acid; compound with triethylamine 1:0.85]",EC50,[1],302 nM
"Cc1ccccc1C(C/C(=N\O)c1ccncc1)c1ccc(-c2cncnc2)cc1 (single isomer, unassigned; (+)) [Example 35, (+)-(E)-1-Pyridin-4-yl-3-(4-pyrimidin-5-yl-phenyl)-3-o-tolyl-propan-1-one oxime]",EC50,[1],67 nM
"Cc1ccccc1C(CC(=NO)c1cc(Cl)ccc1Cl)c1ccc(Br)cc1 (racemic) [Example 49, 3-(4-Bromo-phenyl)-1-(2,5-dichloro-phenyl)-3-o-tolyl-propan-1-one oxime]",EC50,[1],2910 nM
"Cc1cc(/C(C[C@@H](c2ccc(N3CCC(C(=O)O)CC3)cc2)c2ccc(F)cc2F)=N/O)ccn1 (single isomer, unassigned) [Example 428, 1-{4-[(+)-1-(2,4-Difluoro-phenyl)-3-[(E)-hydroxyimino]-3-(2-methyl-pyridin-4-yl)-propyl]-phenyl}-piperidine-4-carboxylic acid]",EC50,[1],18 nM
"Cc1cc(/C(CC(c2ccc(-c3ccc(C(=O)O)c(F)c3)cc2)c2ccccc2C)=N/O)ccn1 (stereo not drawn) [Example 131, 3-Fluoro-4′-[3-[(E)-hydroxyimino]-3-(2-methyl-pyridin-4-yl)-1-o-tolyl-propyl]-biphenyl-4-carboxylic acid]",EC50,[1],14 nM
"Cc1cc(/C(C[C@H](c2ccc(C3CCC(C(=O)O)CC3)cc2)c2ccccc2C)=N/O)ccn1 (stereo partly drawn) [Example 490, (R,E)-4-(4-(3-(Hydroxyimino)-3-(2-methylpyridin-4-yl)-1-o-tolylpropyl)phenyl)-cyclohexanecarboxylic acid]",EC50,[1],24 nM
"Cc1cc(/C(C[C@H](c2ccc(N3CCOCC3)cc2)c2ccccc2C)=N/O)ccn1 [Example 264, (E,R)-1-(2-Methyl-pyridin-4-yl)-3-(4-morpholin-4-yl-phenyl)-3-o-tolyl-propan-1-one oxime]",EC50,[1],2 nM
"Cc1cc(/C(C[C@@H](c2ccc(C(=O)O)cc2)c2ccc(Cl)cc2C)=N/O)ccn1 [Example 282, 4-[(S)-1-(4-Chloro-2-methyl-phenyl)-3-[(E)-hydroxyimino]-3-(2-methyl-pyridin-4-yl)-propyl]-benzoic acid]",EC50,[1],648 nM
"Cc1ccccc1C(C/C(=N\O)c1ccc(=O)n(C)c1)c1ccc(C(=O)NC[C@@H](C)O)cc1 (stereo partly drawn) [Example 248, 4-((E)-3-(Hydroxyimino)-3-(1-methyl-6-oxo-1,6-dihydropyridin-3-yl)-1-o-tolylpropyl)-N-((R)-2-hydroxypropyl)benzamide]",EC50,[1],70 nM
"Cc1cc(/C(C[C@H](c2ccc(C(=O)N(C)C)cc2)c2ccccc2C)=N/O)ccn1 [Example 277, 4-[(R)-3-[(E)-Hydroxyimino]-3-(2-methyl-pyridin-4-yl)-1-o-tolyl-propyl]-N,N-dimethyl-benzamide]",EC50,[1],21 nM
"Cc1cc(/C(CC(c2cccc(S(C)(=O)=O)c2)c2ccccc2C)=N/O)ccn1 (stereo not drawn) [Example 391, (E)-1-(2-methylpyridin-4-yl)-3-(3-(methylsulfonyl)phenyl)-3-o-tolylpropan-1-one oxime]",EC50,[1],122 nM
"COC(=O)CNC(=O)c1ccc(-c2ccc(C(C/C(=N\O)c3ccc(=O)n(C)c3)c3ccc(Cl)cc3C)cc2)cc1 (single isomer, unassigned; (-)) [Example 253, (−)-({4′-[1-(4-Chloro-2-methyl-phenyl)-3-[(E)-hydroxyimino]-3-(1-methyl-6-oxo-1,6-dihydro-pyridin-3-yl)-propyl]-biphenyl-4-carbonyl}-amino)-acetic acid methyl ester]",EC50,[1],140 nM
"Cc1cc(/C(CC(c2ccc(/C=C/C(=O)O)cc2)c2ccccc2C)=N\O)ccn1 (racemic) [Example 87, 3-{4-[3-[Hydroxyimino]-3-(2-methyl-pyridin-4-yl)-1-o-tolyl-propyl]-phenyl}-acrylic acid]",EC50,[1],241 nM
"CCOC(=O)c1ccc(-c2ccc([C@H](C/C(=N\O)c3ccc(=O)n(C)c3)c3ccc(Cl)cc3F)cc2)s1 (single isomer, unassigned) [Example 469, 5-{4-[(+)-1-(4-Chloro-2-fluoro-phenyl)-3-[(E)-hydroxyimino]-3-(1-methyl-6-oxo-1,6-dihydro-pyridin-3-yl)-propyl]-phenyl}-thiophene-2-carboxylic acid ethyl ester]",EC50,[1],420 nM
"Cc1ccccc1C(C/C(=N\O)c1cc(F)cc(F)c1F)c1ccc(Br)cc1 (stereo not drawn) [Example 48, (E)-3-(4-Bromo-phenyl)-3-o-tolyl-1-(2,3,5-trifluoro-phenyl)-propan-1-one oxime]",EC50,[1],4360 nM
"Cc1cc(Cl)ccc1C(C/C(=N\O)c1ccc(=O)n(C)c1)c1ccc(-c2ccc(C#N)cc2)cc1 (stereo not drawn) [Example 251, (E)-4′-(1-(4-Chloro-2-methylphenyl)-3-(hydroxyimino)-3-(1-methyl-6-oxo-1,6-dihydropyridin-3-yl)propyl)biphenyl-4-carbonitrile]",EC50,[1],480 nM
"Cc1cc(/C(CC(c2ccc(-c3ccc(C(=O)O)s3)cc2)c2ccc(Cl)cc2F)=N/O)ccn1 (stereo not drawn) [Example 457, 5-{4-[1-(4-Chloro-2-fluoro-phenyl)-3-[(E)-hydroxyimino]-3-(2-methyl-pyridin-4-yl)-propyl]-phenyl}-thiophene-2-carboxylic acid]",EC50,[1],17 nM
"Cc1cc(/C(C[C@H](c2ccc(-c3nnc(C)o3)cc2)c2ccccc2C)=N/O)ccn1 [Example 417, ((−), E)-3-[4-(5-Methyl-[1,3,4]oxadiazol-2-yl)-phenyl]-1-(2-methyl-pyridin-4-yl)-3-o-tolyl-propan-1-one oxime]",EC50,[1],8 nM
"Cc1cc(Cl)ccc1C(C/C(=N\O)c1ccc(=O)n(C)c1)c1ccc(S(N)(=O)=O)cc1 (stereo not drawn) [Example 338, (E)-4-(1-(4-chloro-2-methylphenyl)-3-(hydroxyimino)-3-(1-methyl-6-oxo-1,6-dihydropyridin-3-yl)propyl)benzenesulfonamide]",EC50,[1],60 nM
"Cc1ccccc1C(C/C(=N\O)c1ccc(=O)n(C)c1)c1ccc(C(=O)NCC(O)C(F)(F)F)cc1 (stereo not drawn) [Example 309, (E)-4-(3-(Hydroxyimino)-3-(1-methyl-6-oxo-1,6-dihydropyridin-3-yl)-1-o-tolylpropyl)-N-(3,3,3-trifluoro-2-hydroxypropyl)benzamide]",EC50,[1],130 nM
"Cc1ccccc1C(C/C(=N\O)c1cc(C)c(O)c(C)c1)c1ccc(Br)cc1 (stereo not drawn) [Example 152, (E)-3-(4-Bromo-phenyl)-1-(4-hydroxy-3,5-dimethyl-phenyl)-3-o-tolyl-propan-1-one oxime]",EC50,[1],5120 nM
"Cc1ccccc1C(C/C(=N\O)c1ccncc1)c1ccc(N2CCN(S(C)(=O)=O)CC2)cc1 (stereo not drawn) [Example 136, (E)-3-[4-(4-Methanesulfonyl-piperazin-1-yl)-phenyl]-1-pyridin-4-yl-3-o-tolyl-propan-1-one oxime]",EC50,[1],24 nM
"Cc1ccccc1C(C/C(=N\O)c1ccc(=O)n(C)c1)c1ccc(C(=O)NCC(=O)O)cc1 (stereo not drawn) [Example 215, {4-[3-[(E)-Hydroxyimino]-3-(1-methyl-6-oxo-1,6-dihydro-pyridin-3-yl)-1-o-tolyl-propyl]-benzoylamino}-acetic acid]",EC50,[1],810 nM
"Cc1cc(Cl)ccc1C(C/C(=N\O)c1ccc(=O)n(C)c1)c1ccc(S(C)(=O)=O)cc1 (single isomer, unassigned; (+)) [Example 334, (+)-(E)-5-(3-(4-chloro-2-methylphenyl)-1-(hydroxyimino)-3-(4-(methylsulfonyl)phenyl)-propyl)-1-methylpyridin-2(1H)-one]",EC50,[1],68 nM
